US7459482B2, “Agent for treatment of cisplatin-resistant cancer” (Dainippon Sumitomo Pharma Co., Ltd., priority 2000, dated 2008)

System: H4-II-E/CDDP cells
Assay: Cell proliferation inhibitory effects after treating for 7 days, WST-1 assay; resistance of H4-II-E/CDDP cells in comparison with H4-II-E cells
Format: cell-based, rat
Details: for resistance of H4-II-E/CDDP cells to the drug: H4-II-E/CDDP cells vs H4-II-E cells
Experimental: Rat hepatic cancer H4-II-E was obtained from Dainippon Pharmaceutical Co., Ltd. The H4-II-E cells were cultured in MEM medium, during which the concentration of CDDP was increased stepwise from 0.1 μg/ml to 1.0 μg/ml over a period of about one year, by which method, the CDDP resistant cell line (H4-II-E/CDDP) was prepared. The cells used in the experiment were those obtained by subculturing in a CDDP-containing MEM medium (CDDP 1.0 μg/ml) in vitro.
The cell proliferation inhibitory effects of cisplatin to H4-II-E cells and H4-II-E/CDDP cells after treating for 7 days were evaluated by WST-1 assay.

SMILES	resistance of H4-II-E/CDDP cells to the drug	resistance of H4-II-E/CDDP cells in comparison with H4-II-E cells (7 days treatment, WST-1 assay)
COc1cc([C@@H]2c3cc4c(cc3[C@@H](O[C@@H]3O[C@@H]5CO[C@@H](C)O[C@H]5[C@H](O)[C@H]3O)[C@H]3COC(=O)[C@H]23)OCO4)cc(OC)c1O [etoposide]	did not show any resistance	–
N.N.[Cl][Pt][Cl] [cisplatin, Cisplatin]	–	about 10 folds
COc1cccc2c1C(=O)c1c(O)c3c(c(O)c1C2=O)C[C@@](O)(C(=O)CO)C[C@@H]3O[C@H]1C[C@H](N)[C@H](O)[C@H](C)O1 [doxorubicin]	did not show any resistance	–
